Test results published in patent publication US8647119B1, “Methods and kits with fluorescent probes for caries detection” (President and Fellows of Harvard College, priority 2006, dated 2014).
“And” between values parts separate entries of the source, which are not always exact repeats. Equal values may be shown once.

How the values were obtained:
[1] = Detection probes on interproximal models of extracted human teeth; settings: for optical signal of early stage caries lesion with bound probe (photograph): synthetic tooth preparation, FIG. 3-8
Procedure: Interproximal models of extracted human teeth (molars and premolars) were fabricated using silicon impression materials. Interproximal enamel caries at about […] depth and at about 1.5 mm depth were prepared by using areas of interproximal contact regions. The dental preparations having synthetic caries were assessed by radiographic films (bitewings) and a microscope.
A cotton ball was saturated with the detection probe, and placed in contact with the region of the interproximal enamel caries. The bound probe was observed by illuminating over a varying set of different wavelengths of excitation light, followed by detecting light of fluorescent emissions. Furthermore, absorbance of the illuminating wavelengths was detected as appropriate for each probe.
Each tooth preparation having interproximal enamel caries and bound probe was illuminated and photographed.
(§1) Probes were tested for appropriate concentration, kinetics of binding and retention. Intensity of the illumination light, and the size of the illumination light beam were varied, and data were recorded for each probe. […] The concentration of each probe was varied to determine an optimum concentration for binding during a time period suitable for dental use. Durations of contacting were also tested, for example about 10 seconds, about 20 seconds, about 40 seconds, or about 60 seconds.

[2] = part of regular human diet or excess excreted; cited from earlier work
[3] = Intensity and duration of fluorescence of diluted probes bound to caries; settings: deep and shallow lesions
Procedure: as §1

[4] = cited from earlier work
[5] = Hydrogen peroxide removal of OsteoSense 750 from five teeth having caries, absorbance at 750 nm; settings: teeth A to E

SMILES	optical signal of early stage caries lesion with bound probe (photograph) [1]	known toxicity [2]	further results
C=Cc1c(C)c2cc3nc(c4c5[n-]c(cc6nc(cc1[n-]2)C(C)=C6CC)c(C)c5C(=O)[C@@H]4C(=O)OC)[C@@H](CCC(=O)OC/C=C(\C)CCC[C@H](C)CCC[C@H](C)CCCC(C)C)[C@@H]3C.[Mg+2] [Chlorophyll A]	Fluorescence of an early stage caries lesion was observed	no known toxicity	interproximal caries observed with probe ([1]; excitation light, emission detected, FIG. 9): Interproximal caries were observed
CCN1C(=CC=CC=CC=CC2=[N+](CCCCCC(=O)O)c3ccc(S(=O)(=O)O)cc3C2(C)C)C(C)(C)c2cc(S(=O)(=O)[O-])ccc21 [Cy7]			fluorescent intensity compared to IR820 (ICG) ([3]; 1:10 and 1:100 dilutions): greater fluorescent intensity at each concentration and lesion depth compared to IR820 (ICG); retained fluorescence intensity compared to CardioGreen (ICG) ([3]; diluted 1:10): retained much greater intensity in both deep and shallow lesions compared to images of CardioGreen (ICG) diluted 1:10
COc1cccc2c1C(=O)c1c(O)c3c(c(O)c1C2=O)C[C@@](O)(C(=O)CO)C[C@@H]3O[C@H]1C[C@H](N)[C@H](O)[C@H](C)O1 [Doxorubicin]	Fluorescence of an early stage caries lesion was observed		
C1=Cc2cc3ccc(cc4nc(cc5ccc(cc1n2)[nH]5)C=C4)[nH]3 [Porphyrin]	Fluorescence of an early stage caries lesion was observed	no known toxicity	
Cc1cc2nc3c(=O)[nH]c(=O)nc-3n(C[C@H](O)[C@H](O)[C@H](O)CO)c2cc1C [Riboflavin]			water solubility [4]: water soluble
OO [hydrogen peroxide]			% OsteoSense 750 removed (g) [5]: 80% and 93% and 88%
